Assay results: ChEMBL document CHEMBL3046856, “Synthesis and fungicidal activity of novel pimprinine analogues” (2012)

Legend:
Format in all cases: functional
Alternaria solani [1] = assay: Fungicidal activity against Alternaria solani grown on compound supplemented artificial media assessed as control of disease or pathogen at 20 ppm measured after 5 to 14 days by artificial media assay
[2] = Fungicidal activity against Zymoseptoria tritici infected on compound pre-treated wheat leaf pieces assessed as control of disease or pathogen at 100 ppm measured after 5 to 14 days by leaf-piece assay
Botrytis cinerea [3] = assay: Fungicidal activity against Botryotinia fuckeliana grown on compound supplemented artificial media assessed as control of disease or pathogen at 20 ppm measured after 5 to 14 days by artificial media assay
Botrytis cinerea [4] = assay: Fungicidal activity against Botryotinia fuckeliana grown on compound supplemented artificial media assessed as control of disease or pathogen at 2 ppm measured after 5 to 14 days by artificial media assay
Pythium dissimile [5] = assay: Fungicidal activity against Pythium dissimile grown on compound supplemented artificial media assessed as control of disease or pathogen at 2 ppm measured after 5 to 14 days by artificial media assay
Uromyces viciae-fabae = assay: Fungicidal activity against Uromyces viciae-fabae infected compound pre-treated bean leaf pieces assessed as control of disease or pathogen at 100 ppm measured after 5 to 14 days by leaf-piece assay
Pythium dissimile [6] = assay: Fungicidal activity against Pythium dissimile grown on compound supplemented artificial media assessed as control of disease or pathogen at 20 ppm measured after 5 to 14 days by artificial media assay
Alternaria solani [7] = assay: Fungicidal activity against Alternaria solani grown on compound supplemented artificial media assessed as control of disease or pathogen at 2 ppm measured after 5 to 14 days by artificial media assay

Row | Structure (SMILES) | Activity (Alternaria solani [1]) [%] | Activity [2] [%] | Activity (Botrytis cinerea [3]) [%] | Activity (Botrytis cinerea [4]) [%] | Activity (Pythium dissimile [5]) [%] | Activity (Uromyces viciae-fabae) [%] | Activity (Pythium dissimile [6]) [%] | Activity (Alternaria solani [7]) [%]
1 | COCC(=O)n1cc(-c2ocnc2Cl)c2ccccc21 | 99 | 0 | 77 | 0 | 0 | 55 | 55 | 0
2 | CCOC(=O)Cn1cc(-c2ocnc2Cl)c2ccccc21 | 0 | 0 | 0 | 0 | 0 | 0 | 0 | 0
3 | CCOC(=O)C(=O)n1cc(-c2ocnc2Cl)c2ccccc21 | 99 | 33 | 99 | 0 | 0 | 0 | 77 | 0
4 | Fc1ccc(Cn2cc(-c3ocnc3Cl)c3ccccc32)c(F)c1 | 0 | 0 | 0 | 0 | 0 | 27 | 0 | 0
5 | Clc1ncoc1-c1cn(CC2CO2)c2ccccc12 (stereo unspecified) | 0 | 0 | 0 | 0 | 0 | 77 | 0 | 0
6 | Clc1ncoc1-c1cn(CC2CC2)c2ccccc12 | 0 | 33 | 0 | 0 | 0 | 55 | 99 | 0
7 | Cn1cc(-c2ocnc2Br)c2ccccc21 | 0 | 0 | 0 | 0 | 0 | 55 | 0 | 0
8 | CCn1cc(-c2ocnc2Br)c2ccccc21 | 55 | 0 | 0 | 0 | 49 | 99 | 55 | 0
9 | C=CCn1cc(-c2ocnc2Br)c2ccccc21 | 0 | 18 | 27 | 0 | 0 | 49 | 0 | 0
10 | ClC(Cl)=CCn1cc(-c2ocnc2Br)c2ccccc21 | 0 | 0 | 0 | 0 | 0 | 0 | 0 | 0
11 | CC(=O)n1cc(-c2ocnc2Br)c2ccccc21 | 0 | 0 | 0 | 0 | 0 | 0 | 0 | 0
12 | CCC(=O)n1cc(-c2ocnc2Br)c2ccccc21 | 0 | 0 | 0 | 0 | 0 | 0 | 0 | 0
13 | CCS(=O)(=O)n1cc(-c2ocnc2Br)c2ccccc21 | 0 | 0 | 0 | 0 | 0 | 0 | 0 | 0
14 | O=C(CCl)n1cc(-c2ocnc2Br)c2ccccc21 | 99 | 18 | 99 | 0 | 0 | 49 | 99 | 27
15 | O=C(C(Cl)Cl)n1cc(-c2ocnc2Br)c2ccccc21 | 99 | 0 | 99 | 0 | 0 | 27 | 77 | 0
16 | CC(Cl)C(=O)n1cc(-c2ocnc2Br)c2ccccc21 (stereo unspecified) | 55 | 0 | 0 | 0 | 0 | 27 | 0 | 0
17 | Clc1ncoc1-c1c[nH]c2ccccc12 [Streptochlorin] | 99 | 36 | 99 | 0 | 0 | 55 | 99 | 99
